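How tested: cells in 96-well plates exposed to compound for 48 hours at five concentrations. GI50 = concentration required for 50% inhibition of growth.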 Active and inactive are the calls of the source. No stated cut-off is given here; in the data, active = GI50 up to about 1.1 µM and inactive = higher. Positions of bridges follow the written chain, without caps; N, C: chain ends. Residues, ends and D or L forms follow the SMILES beside them.
What was measured:
Test in all cases: NCI anticancer screen, dose series, 48 h
MDA-MB-435 = test system: MDA-MB-435
UO-31 = test system: UO-31
SF-295 = test system: SF-295
SK-MEL-2 = test system: SK-MEL-2
HT-29 = test system: HT-29
DU-145 = test system: DU-145
SN12C = test system: SN12C
COLO 205 = test system: COLO 205
786-0 = test system: 786-0
OVCAR-8 = test system: OVCAR-8
HCT-116 = test system: HCT-116
CAKI-1 = test system: CAKI-1
SNB-19 = test system: SNB-19
A498 = test system: A498
HCT-15 = test system: HCT-15

| Compound | GI50 (MDA-MB-435) | GI50 (UO-31) | GI50 (SF-295) | GI50 (SK-MEL-2) | GI50 (HT-29) | GI50 (DU-145) | GI50 (SN12C) | GI50 (COLO 205) | GI50 (786-0) | GI50 (OVCAR-8) | GI50 (HCT-116) | GI50 (CAKI-1) | GI50 (SNB-19) | GI50 (A498) | GI50 (HCT-15) [µM] |
| --- | --- | --- | --- | --- | --- | --- | --- | --- | --- | --- | --- | --- | --- | --- | --- |
| O=c1/c(=C/c2ccccn2)sc2nc3cc4c(cc3n12)OCCO4 | > 100 µM (inactive) | > 100 µM (inactive) | > 100 µM (inactive) | > 100 µM (inactive) | > 100 µM (inactive) | > 100 µM (inactive) | > 100 µM (inactive) | > 100 µM (inactive) | > 100 µM (inactive) | > 100 µM (inactive) | > 100 µM (inactive) | > 100 µM (inactive) | > 100 µM (inactive) | > 100 µM (inactive) | > 100 |
| C=CCCCCCCCCC(=O)ON(Cc1ccc(O)c(OC)c1)C(=O)C(F)(F)F | > 100 µM (inactive) | 10.9 µM (inactive) | > 100 µM (inactive) |  | > 100 µM (inactive) | > 100 µM (inactive) | > 100 µM (inactive) | > 100 µM (inactive) | > 100 µM (inactive) | > 100 µM (inactive) | > 100 µM (inactive) |  | > 100 µM (inactive) | 44.1 µM (inactive) | > 100 |
| O=C(c1ccc(/N=C/c2ccccc2O)cc1)c1ccc(/N=C/c2ccccc2O)cc1 | > 100 µM (inactive) | > 100 µM (inactive) | > 100 µM (inactive) | > 100 µM (inactive) | > 100 µM (inactive) | > 100 µM (inactive) |  | 30.1 µM (inactive) | > 100 µM (inactive) |  | > 100 µM (inactive) | > 100 µM (inactive) | > 100 µM (inactive) | > 100 µM (inactive) | > 100 |
| C=CCC1(O)C(=O)OC2C(O)COC21O (centres undefined) | > 100 µM (inactive) | > 100 µM (inactive) | > 100 µM (inactive) | > 100 µM (inactive) | > 100 µM (inactive) | > 100 µM (inactive) | > 100 µM (inactive) | > 100 µM (inactive) | > 100 µM (inactive) | > 100 µM (inactive) | > 100 µM (inactive) | > 100 µM (inactive) | > 100 µM (inactive) | > 100 µM (inactive) | > 100 |
| CCC(C)C1NC(=O)C(CC(C)C)NC(=O)C(C(C)C)NC(=O)C2CSSCC(NC1=O)C(=O)N2 (centres undefined) (cyclo(CCVLI); disulfide 1-2; configuration not given here) | 0.194 µM (active) | 2.16 µM (inactive) | 0.182 µM (active) | 0.142 µM (active) | 0.177 µM (active) | 0.156 µM (active) | 0.192 µM (active) | 0.0991 µM (active) | 0.157 µM (active) | 0.194 µM (active) | 0.0498 µM (active) | 1.74 µM (inactive) | 0.166 µM (active) |  | 1.86 |
| CN(C)Cc1cc(C(=O)/C=C/c2ccc(Cl)c(Cl)c2)cc(CN(C)C)c1O | 3.26 µM (inactive) | 1.83 µM (inactive) | 3.38 µM (inactive) |  | 1.24 µM (inactive) | 4.84 µM (inactive) | 2.25 µM (inactive) | 1.29 µM (inactive) | 1.36 µM (inactive) | 1.68 µM (inactive) | 2.77 µM (inactive) | 1.13 µM (inactive) | 2.56 µM (inactive) | 3.17 µM (inactive) | 2.84 |
| COC(=O)[C@H](C)NC(=O)[C@H](NS(=O)(=O)c1nc2ccccc2s1)c1ccccc1 | 41 µM (inactive) | 19.7 µM (inactive) | 39.1 µM (inactive) | 11.3 µM (inactive) | 39.4 µM (inactive) | 15.2 µM (inactive) |  | 13.1 µM (inactive) | 29.2 µM (inactive) | 16.7 µM (inactive) | 44.3 µM (inactive) | 32.4 µM (inactive) | 27.4 µM (inactive) |  | 23.3 |
| C[C@]12CC[C@H](O)CC1=CC[C@@H]1C2CC[C@]2(C)c3nn(-c4ccc(F)cc4)nc3CC12 (some centres undefined) | 87.3 µM (inactive) | 81.1 µM (inactive) | 34 µM (inactive) |  | 22.4 µM (inactive) | 88.3 µM (inactive) | 71 µM (inactive) | 46.5 µM (inactive) | 45.3 µM (inactive) | 85.7 µM (inactive) | 67.3 µM (inactive) | > 100 µM (inactive) | 73.3 µM (inactive) | 60.1 µM (inactive) |  |
| Cc1ccc(-c2c(C#N)c(-c3ccc(N(C)C)cc3)c(C#N)c(=O)n2NS(=O)(=O)c2ccccc2)cc1 | 43.7 µM (inactive) |  | 23.1 µM (inactive) | 37.5 µM (inactive) | 38.5 µM (inactive) |  | 55.7 µM (inactive) | 40.8 µM (inactive) | 22.9 µM (inactive) | 44.5 µM (inactive) | 30.7 µM (inactive) | 31.7 µM (inactive) | 63.7 µM (inactive) | 51.4 µM (inactive) | 27.7 |
| COC(=O)C1(Cc2ccccc2)Cc2cc3c(cc2C1O)CCC3 (centres undefined) | 16.3 µM (inactive) | > 10 µM (inactive) | 27 µM (inactive) |  | 13.8 µM (inactive) | 15.2 µM (inactive) | 17.7 µM (inactive) | 21.3 µM (inactive) | 13.6 µM (inactive) | 25.6 µM (inactive) | 17.9 µM (inactive) | 11.6 µM (inactive) |  | 19.7 µM (inactive) | 30.5 |
| CC(O)(/C=C/c1ccccc1)P(=O)(O)c1ccccc1 (centres undefined) | > 100 µM (inactive) |  | > 100 µM (inactive) | > 100 µM (inactive) | > 100 µM (inactive) | > 100 µM (inactive) | > 100 µM (inactive) | > 100 µM (inactive) | > 100 µM (inactive) | > 100 µM (inactive) | > 100 µM (inactive) | > 100 µM (inactive) | > 100 µM (inactive) | > 100 µM (inactive) | > 100 |
| CC1(C)OC2C(CO)OC(n3cnc(N)nc3=O)C2O1 (centres undefined) | > 100 µM (inactive) | > 100 µM (inactive) | > 100 µM (inactive) | > 100 µM (inactive) |  | > 100 µM (inactive) | > 100 µM (inactive) | > 100 µM (inactive) | > 100 µM (inactive) | > 100 µM (inactive) | > 100 µM (inactive) | > 100 µM (inactive) | > 100 µM (inactive) | > 100 µM (inactive) | > 100 |
| COc1ccc(-c2nc3ncccn3c2-c2ccc([S+](C)[O-])cc2)cc1 (centres undefined) | 15.1 µM (inactive) | > 100 µM (inactive) | > 100 µM (inactive) | > 100 µM (inactive) | > 100 µM (inactive) | > 100 µM (inactive) | > 100 µM (inactive) | > 100 µM (inactive) | > 100 µM (inactive) | > 100 µM (inactive) | > 100 µM (inactive) | 14.2 µM (inactive) | > 100 µM (inactive) |  | > 100 |
| O=C1/C(=C/c2cccs2)NC(=S)N1CN1CCCCC1 | 85.1 µM (inactive) | 80.2 µM (inactive) | > 100 µM (inactive) | > 100 µM (inactive) | 39.9 µM (inactive) | 42.5 µM (inactive) | 97.5 µM (inactive) | 17.4 µM (inactive) | 42.3 µM (inactive) | 41 µM (inactive) | 33 µM (inactive) |  | 29.7 µM (inactive) | > 100 µM (inactive) | 29.9 |
| O=C1CC(C(O)C(O)C(O)CO)CC(=O)N1 (centres undefined) | > 100 µM (inactive) | > 100 µM (inactive) | > 100 µM (inactive) |  | > 100 µM (inactive) |  | > 100 µM (inactive) | > 100 µM (inactive) | > 100 µM (inactive) | > 100 µM (inactive) | > 100 µM (inactive) | > 100 µM (inactive) | > 100 µM (inactive) | > 100 µM (inactive) | > 100 |
| Cc1ccc(SCC(CF)OC(C)n2cnc3c(Cl)nc(N)nc32)cc1 (centres undefined) | 78.3 µM (inactive) | 42.5 µM (inactive) | 67.9 µM (inactive) | 69.8 µM (inactive) | > 100 µM (inactive) | > 100 µM (inactive) | 43.3 µM (inactive) | > 100 µM (inactive) | 58.7 µM (inactive) | 69.7 µM (inactive) | 55.1 µM (inactive) | 84.7 µM (inactive) | > 100 µM (inactive) |  | > 100 |
| c1ccc(Cc2cc(-c3ccccc3)[nH]n2)cc1 | 10.3 µM (inactive) | 21.8 µM (inactive) | 0.568 µM (active) | 16.5 µM (inactive) | 11.2 µM (inactive) | 11.5 µM (inactive) | 13.5 µM (inactive) | 17.4 µM (inactive) | 17 µM (inactive) | 13.5 µM (inactive) | 25.9 µM (inactive) | 11.5 µM (inactive) | 23.2 µM (inactive) |  | 18.5 |
| Cc1cc(C)c2ccc(N3CCNCC3)nc2n1 | > 100 µM (inactive) | 41.7 µM (inactive) | > 100 µM (inactive) | > 100 µM (inactive) | 57.7 µM (inactive) | > 100 µM (inactive) | > 100 µM (inactive) | 64.6 µM (inactive) | 67.9 µM (inactive) | > 100 µM (inactive) | 84.1 µM (inactive) | > 100 µM (inactive) | > 100 µM (inactive) |  | > 100 |
| Cc1ccc(-c2cc(O)c3nc4ccccc4n3c2)cc1 | 5.27 µM (inactive) | > 100 µM (inactive) | > 100 µM (inactive) |  | > 100 µM (inactive) | > 100 µM (inactive) | > 100 µM (inactive) | > 100 µM (inactive) | > 100 µM (inactive) | 54.3 µM (inactive) | > 100 µM (inactive) | > 100 µM (inactive) | > 100 µM (inactive) | > 100 µM (inactive) | > 100 |
| Cc1ccc(/N=C2\C(=N/c3ccc(C)cc3)N(c3ccc(C)cc3)C(=S)N2C(=O)c2ccccc2)cc1 | > 100 µM (inactive) | > 100 µM (inactive) | 18.3 µM (inactive) | > 100 µM (inactive) | > 100 µM (inactive) | > 100 µM (inactive) | > 100 µM (inactive) | > 100 µM (inactive) | > 100 µM (inactive) | > 10 µM (inactive) |  | > 100 µM (inactive) | > 100 µM (inactive) |  | > 100 |

Source: ChEMBL document CHEMBL1201862, “PubChem BioAssay data set” (2004)
